Measurements: patent US20060134102A1, “Lymphotoxin beta receptor agents in combination with chemotherapeutic agents” (Biogen Idec MA Inc., priority 2002, published 2006)
Several values for one entry are separate records, joined by “and”; a condition that tells them apart may be missing. Equal entries are not always repeated.

System: WiDr human colorectal adenocarcinoma
Assay: WiDr xenograft model: growth of established WiDr human colorectal tumors in athymic nude mice (tumor volume/weight, % T/C, Fa, Combination Index)
Details: for Volume Decrease: vs control; for Fractional Inhibition of Tumor Volume (Fa), Ave. / Tumor Volume, Ave.: group average
[1] = Day 34, individual animals, hCBE 50
[2] = Day 34, individual animals, hCBE 500
[3] = hCBE 50 μg, day 28, one line per animal
[4] = hCBE 100 μg, day 28, one line per animal
[5] = huCBE11 50 μg, day 21, listed as hCBE
[6] = Gem 12.5 mg/kg, day 28, one line per animal, listed as Gem
[7] = Gem 25 mg/kg, day 28, one line per animal, listed as Gem
[8] = Gem 50 mg/kg, day 28, one line per animal, listed as Gem

Protocol: Therapeutic agents, i.e. LTβR agonist and chemotherapeutic agents, were administered to athymic nude mice who had been implanted with WiDr tumor cells.
WiDr cells were obtained from the American Type Culture Collection (Manassas, Va.). Cells were grown in vitro in 90% Eagle's Minimum Essential Medium with 2 mM L-glutamine and Earle's Balanced Salt Solution (BSS) adjusted to contain 1.5 g/L sodium bicarbonate, 0.1 mM non-essential amino acids, and 1 mM sodium pyruvate plus 10% fetal bovine serum (FBS) without antibiotics (5% CO2). Bacterial cultures were performed on aliquots of the tumor homogenate preparation that was implanted into the mice to ensure that all cultures were negative for bacterial contamination at both 24 and 48 hours post implant.
When the tumors measured approximately 5 mm in length by 5 mm in width, mice were randomized to treatment and control groups. Body weight measurements were recorded twice-weekly beginning on Day 0.
Tumor measurements were determined using Vernier calipers. Tumor size measurements were recorded regularly according to the study, until the termination of the study. The formula to calculate volume for a prolate ellipsoid was used to estimate tumor volume (mm^3) from 2-dimensional tumor measurements: tumor volume (mm^3)=(length×width^2 [L×W^2])÷2. Assuming unit density, volume was converted to weight (i.e., 1 mm^3=1 mg). Tumor growth inhibition was assessed as % T/C, where T is the mean tumor weight of the treatment group and C is the mean tumor weight of the control group. […] Animals were sacrificed accordingly.
Statistical analysis of the tumor weight measurements was performed according to standard statistical methods. Mean, standard deviation (SD), and standard error of the mean (SEM) were determined for body weight and tumor weight for all dose groups at all assessments.
Antitumor efficacy was determined by comparing each treatment group's tumor volume with the control group's tumor volume. Mean tumor volume decrease was calculated as the difference between the control group and the treatment group mean tumor volume. The fractional inhibition of tumor volume, i.e., the fraction affected (Fa), was calculated by dividing the treatment group mean tumor volume decrease by the control group mean tumor volume. […] Further statistical analysis was performed accordingly.

## huCBE11: humanized anti-LT-β-R agonist antibody (LTβ receptor-activating mAb), described in WO 02/30986
Day 34, huCBE11 5 ug
  Fa (Fraction Affected): 0.256
  Tumor Volume: 1024.0
  Volume Decrease: 352.4
Day 34, huCBE11 50 ug
  Fa (Fraction Affected): 0.361
  Tumor Volume: 880.1
  Volume Decrease: 496.3
Day 34, huCBE11 500 ug
  Fa (Fraction Affected): 0.466
  Tumor Volume: 735.6
  Volume Decrease: 640.8
Day 34, huCBE11 Given Separately
  Median Effect Dose: 932.9 µg
Day 34, huCBE11 dose, Combined (0.333:1) with Taxol
  Median Effect Dose: 19.8 µg
[1]
  Individual Fractional Inhibition of Tumor Volume: 0.039 and 0.536 and 0.420 and 0.452 and 0.391 and 0.290 and 0.423 and 0.674 and −0.234 and 0.614
  Individual Tumor Volumes: 1322.2 and 638.5 and 798.8 and 754.3 and 838.2 and 976.8 and 794.0 and 448.6 and 1698.4 and 531.6
[2]
  Individual Fractional Inhibition of Tumor Volume: 0.174 and 0.360 and 0.502 and 0.529 and 0.688 and 0.717 and 0.395 and 0.607 and 0.230 and 0.454
  Individual Tumor Volumes: 1136.7 and 881.2 and 685.7 and 648.1 and 430.1 and 389.8 and 832.1 and 541.3 and 1059.8 and 751.2
All huCBE11 groups (500, 100, 50 μg), day 42
  Tumor weight vs vehicle control: statistically significantly lower
hCBE 50 μg, day 28
  Fractional Inhibition of Tumor Volume (Fa), Ave.: 0.442
  Tumor Volume, Ave.: 448.0
[3]
  Individual Fractional Inhibition of Tumor Volume (Fa): 0.467 and 0.547 and 0.564 and 0.463 and 0.456 and 0.350 and −0.060 and 0.245 and 0.827 and 0.562
  Individual Tumor Volumes: 428.2 and 363.5 and 350.4 and 431.3 and 437.1 and 521.8 and 851.1 and 606.1 and 138.7 and 352.2
hCBE 100 μg, day 28
  Fractional Inhibition of Tumor Volume (Fa), Ave.: 0.519
  Tumor Volume, Ave.: 386.1
[4]
  Individual Fractional Inhibition of Tumor Volume (Fa): 0.754 and −0.210 and 0.441 and 0.590 and 0.596 and 0.449 and 0.682 and 0.556 and 0.723 and 0.614
  Individual Tumor Volumes: 197.9 and 972.2 and 449.1 and 329.2 and 324.7 and 442.5 and 255.6 and 356.8 and 222.4 and 310.4
huCBE11 5 μg, day 21
  Fa (Fraction Affected), group mean: 0.265
  Tumor Volume, group mean: 319.0
  Volume Decrease vs control, group mean: 115.0
huCBE11 5 μg, day 28
  Fa: 0.143
  Tumor Volume: 688.4
  Volume Decrease: 114.8
huCBE11 5 μg, gemcitabine parallel study
  Inhibition of tumor growth: did not significantly inhibit tumor growth
huCBE11 50 μg given separately, day 28
  Fraction Affected: 0.442
huCBE11 50 μg, Day 41
  % T/C: 43.5%
huCBE11 50 μg, day 21
  Fa (Fraction Affected), group mean: 0.383
  Tumor Volume, group mean: 267.8
  Volume Decrease vs control, group mean: 166.2
[5]
  Fa, individual animals: 0.607 and 0.437 and 0.466 and 0.590 and 0.298 and 0.605 and 0.179 and −0.015 and 0.415 and 0.247
  Tumor volume, individual animals: 170.5 and 244.3 and 231.8 and 178.1 and 304.5 and 171.3 and 356.5 and 440.3 and 254.0 and 326.6
huCBE11 50 μg, day 28
  Tumor Volume: 448.0
  Volume Decrease: 355.2
huCBE11 50 μg, day 35
  Fa (fractional inhibition of tumor volume), group mean: 0.437
  Fa, individual animals: 0.723 and 0.666 and 0.660 and 0.636 and 0.318 and −0.502 and 0.321 and 0.473 and 0.743 and 0.329
  Tumor Volume, group mean: 633.2
  Tumor volume, individual animals: 311.9 and 375.4 and 381.9 and 409.6 and 766.4 and 1688.6 and 762.8 and 592.2 and 289.2 and 754.4
  Volume Decrease vs control, group mean: 490.8
huCBE11 50 μg, day 44
  Fa (fractional inhibition of tumor volume), group mean: 0.387
  Fa, individual animals: 0.656 and 0.434 and 0.559 and 0.498 and 0.143 and 0.591 and −0.316 and 0.381 and 0.406 and 0.516
  Tumor Volume, group mean: 869.7
  Tumor volume, individual animals: 487.5 and 802.7 and 624.9 and 712.0 and 1216.2 and 580.7 and 1866.3 and 878.7 and 842.6 and 686.0
  Volume Decrease vs control, group mean: 548.9
huCBE11 100 μg given separately, day 28
  Fraction Affected: 0.519
huCBE11 100 μg, Day 41
  % T/C: 40.0%
huCBE11 100 μg, day 28
  Tumor Volume: 386.1
  Volume Decrease: 417.1
huCBE11 100 μg, day 35
  Fa (fractional inhibition of tumor volume), group mean: 0.645
  Fa, individual animals: 0.762 and 0.814 and 0.781 and 0.739 and 0.750 and 0.344 and 0.593 and 0.696 and 0.119 and 0.848
  Tumor Volume, group mean: 399.5
  Tumor volume, individual animals: 267.9 and 208.9 and 245.8 and 293.4 and 281.4 and 737.5 and 457.4 and 341.5 and 990.1 and 171.4
  Volume Decrease vs control, group mean: 724.5
huCBE11 100 μg, gemcitabine parallel study
  Activity by NCI criteria (% T/C of 42 or less): active
huCBE11 500 μg and 50 μg groups, days 35 or 38 to 42
  % T/C: < 42%
huCBE11 500 μg and 100 μg groups, days 32 to 42
  % T/C: < 42%
huCBE11 500 μg, 100 μg, 50 μg, adriamycin parallel study
  Activity by NCI criteria: active
huCBE11 500 μg, Days 31 to 45
  % T/C: below 42%
huCBE11 500 μg, day 21
  Fa (Fraction Affected), group mean: 0.418
  Tumor Volume, group mean: 252.5
  Volume Decrease vs control, group mean: 181.5
huCBE11 500 μg, day 35
  Fa (fractional inhibition of tumor volume), group mean: 0.648
  Fa, individual animals: 1.000 and 0.750 and 0.305 and 0.758 and 0.522 and 0.756 and 0.672 and 0.670 and 0.307 and 0.736
  Tumor Volume, group mean: 396.0
  Tumor volume, individual animals: 0.1 and 280.9 and 781.0 and 272.3 and 537.5 and 273.7 and 368.7 and 370.6 and 778.7 and 296.8
  Volume Decrease vs control, group mean: 728.0
huCBE11 500 μg, day 44
  Fa (fractional inhibition of tumor volume), group mean: 0.567
  Fa, individual animals: 0.930 and 0.334 and 0.624 and 0.765 and 0.669 and 0.538 and 0.285 and 0.489 and 0.488 and 0.545
  Tumor Volume, group mean: 614.7
  Tumor volume, individual animals: 99.1 and 944.8 and 534.1 and 333.2 and 469.4 and 655.8 and 1014.0 and 725.3 and 726.2 and 645.6
  Volume Decrease vs control, group mean: 803.9
huCBE11, Camptosar parallel study
  Activity by NCI criteria (% T/C of 42 or less): active
huCBE11 combined with Camptosar (0.555:1), day 21
  Median Effect Dose: 10.2 µg
huCBE11 combined with Gemcitabine (0.568:1), day 28
  Median Effect Dose: 7.3 µg
huCBE11 given separately, day 21
  Median Effect Dose: 2933 µg
huCBE11 given separately, day 28
  Median Effect Dose: 81.1 µg

## Nc1ccn([C@@H]2O[C@H](CO)[C@@H](O)C2(F)F)c(=O)n1 [Gemcitabine, gemcitabine, reference compound]
Gem 12.5 mg/kg, day 28
  Fractional Inhibition of Tumor Volume (Fa), Ave.: 0.403
  Tumor Volume, Ave.: 479.5
[6]
  Individual Fractional Inhibition of Tumor Volume (Fa): 0.571 and 0.001 and 0.524 and 0.490 and 0.427 and 0.479 and 0.421 and 0.632 and −0.058 and 0.543
  Individual Tumor Volumes: 344.8 and 802.2 and 382.6 and 409.5 and 459.9 and 418.6 and 465.3 and 295.5 and 849.7 and 367.1
Gem 25 mg/kg, day 28
  Fractional Inhibition of Tumor Volume (Fa), Ave.: 0.603
  Tumor Volume, Ave.: 319.0
[7]
  Individual Fractional Inhibition of Tumor Volume (Fa): 0.678 and 0.561 and 0.657 and 0.440 and 0.505 and 0.574 and 0.712 and 0.703 and 0.559 and 0.641
  Individual Tumor Volumes: 258.5 and 352.8 and 275.7 and 450.0 and 397.8 and 342.6 and 230.9 and 238.8 and 354.3 and 288.2
Gem 50 mg/kg, day 28
  Fractional Inhibition of Tumor Volume (Fa), Ave.: 0.594
  Tumor Volume, Ave.: 326.0
[8]
  Individual Fractional Inhibition of Tumor Volume (Fa): 0.602 and 0.812 and 0.747 and 0.502 and 0.445 and 0.538 and 0.447 and 0.774 and 0.659 and 0.417
  Individual Tumor Volumes: 319.6 and 151.2 and 203.1 and 400.1 and 446.1 and 370.9 and 444.1 and 181.8 and 274.1 and 468.6
Gemcitabine 12.5 mg/kg given separately, day 28
  Fraction Affected: 0.403
Gemcitabine 12.5 mg/kg, day 28
  Tumor Volume: 479.5
  Volume Decrease: 323.7
Gemcitabine 25 mg/kg given separately, day 28
  Fraction Affected: 0.603
Gemcitabine 25 mg/kg, day 28
  Tumor Volume: 318.9
  Volume Decrease: 484.3
Gemcitabine 50 mg/kg, day 28
  Tumor Volume: 326.0
  Volume Decrease: 477.2
Gemcitabine combined with huCBE11 (0.568:1), day 28
  Median Effect Dose: 4.2 mg/kg
Gemcitabine given separately, day 28
  Median Effect Dose: 16.7 mg/kg
Gemcitabine 12.5 mg/kg, Day 41, separate study
  Inhibition of tumor growth vs vehicle control: No significant inhibition
Gemcitabine 25 mg/kg, Days 21 and 28
  % T/C: below 42%
Gemcitabine 50 mg/kg to […], Day 41
  Activity by NCI criteria (% T/C of 42 or less): inactive
Gemcitabine 50 mg/kg, Days 17 to 28
  % T/C: below 42%
